Values of other authors in patent US20080311200A1, “Controlled Slow Release Formulation of Thiamine and Use Thereof in the Treatment of Pathologies Connected to Defective Process of Learning and Memorization” (BIOPROGRESS S.P.A., priority 2004, published 2008).

Test system: mechanism of active transport through the intestine wall

Cc1ncc(C[n+]2csc(CCO)c2C)c(N)n1 [thiamine]
concentration above which the active transport of intestinal absorption reaches saturation: higher than 2 μM
